Results published in US8030341B2, “Dmt-derivative compounds and related compositions and methods of use” (priority 2005, dated 2011).
Where two headings read alike, the source gives them in different places.

Tests used:
δ-opioid receptor [1] = molecular target: T1, δ-opioid receptor (Rattus norvegicus, UniProt P33533); test: opioid receptor binding competition assay, rat brain P2 synaptosomal membranes (δ); details: Table 3; versus [3H]DPDPE; rat brain synaptosomes; read-out: Ki(δ)
T1 construct: from tissue; host or cells: rat brain P2 synaptosomal membranes (Sprague-Dawley)
T1 sequence (P33533 whole entry): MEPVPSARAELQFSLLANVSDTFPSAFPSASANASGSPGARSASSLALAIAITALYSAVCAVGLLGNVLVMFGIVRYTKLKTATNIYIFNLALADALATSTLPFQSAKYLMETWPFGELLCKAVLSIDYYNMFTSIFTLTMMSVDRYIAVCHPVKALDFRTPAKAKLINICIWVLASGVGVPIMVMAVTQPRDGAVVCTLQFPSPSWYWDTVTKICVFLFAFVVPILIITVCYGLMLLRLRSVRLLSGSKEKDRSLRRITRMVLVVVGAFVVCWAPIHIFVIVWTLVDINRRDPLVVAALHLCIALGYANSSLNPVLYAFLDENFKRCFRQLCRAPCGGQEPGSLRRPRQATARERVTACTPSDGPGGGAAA
Protocol: (§1) Synaptosomes were preincubated to remove endogenous opioids, washed in excess ice-cold buffer containing protease inhibitor and stored in a glycerol-containing buffer with protease inhibitor at −80° C. as described in Lazarus et al., J. Med. Chem. 34:1350-55 (1991). […] After incubation, the radiolabeled membranes were rapidly filtered on Whatman GF/C glass fiber filters presoaked in 0.1% polyethylenimine in order to optimize the signal-to-noise ratio, washed with ice-cold BSA buffer, and dried at 75-80° C. Radioactivity was determined using EcoLume (ICN, Costa Mesa, Calif.). All compounds were analyzed in duplicate using 5-8 peptide dosages and several synaptosomal preparations in independent repetitions to ensure statistical significance. The affinity constants (Ki) were calculated according to Cheng and Prusoff (Cheng et al., Biochem. Pharmacol., 22: 3099-3108 ([…])).

μ-opioid receptor [2] = molecular target: T2, μ-opioid receptor (Rattus norvegicus, UniProt P33535); test: opioid receptor binding competition assay, rat brain P2 synaptosomal membranes (μ); details: Table 3
T2 construct: from tissue; host or cells: rat brain P2 synaptosomal membranes (Sprague-Dawley)
T2 sequence (P33535 whole entry): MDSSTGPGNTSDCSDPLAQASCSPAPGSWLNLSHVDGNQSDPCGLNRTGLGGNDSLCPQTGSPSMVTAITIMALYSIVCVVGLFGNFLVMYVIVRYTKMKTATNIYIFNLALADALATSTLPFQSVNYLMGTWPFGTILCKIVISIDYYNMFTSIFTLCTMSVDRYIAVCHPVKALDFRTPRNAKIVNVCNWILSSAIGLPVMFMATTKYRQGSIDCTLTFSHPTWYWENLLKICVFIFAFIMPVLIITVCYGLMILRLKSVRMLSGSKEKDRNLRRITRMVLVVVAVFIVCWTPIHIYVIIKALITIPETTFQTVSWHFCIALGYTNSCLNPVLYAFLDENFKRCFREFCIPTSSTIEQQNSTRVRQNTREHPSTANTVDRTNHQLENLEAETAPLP
Protocol: as §1

δ-opioid receptor [3] = molecular target: T3, δ-opioid receptor (Mus musculus, UniProt P32300); test: mouse vas deferens (MVD) bioassay; assay type: cell-based; details: Table 4
T3 construct: from tissue; host or cells: isolated mouse vas deferens
T3 sequence (P32300 whole entry): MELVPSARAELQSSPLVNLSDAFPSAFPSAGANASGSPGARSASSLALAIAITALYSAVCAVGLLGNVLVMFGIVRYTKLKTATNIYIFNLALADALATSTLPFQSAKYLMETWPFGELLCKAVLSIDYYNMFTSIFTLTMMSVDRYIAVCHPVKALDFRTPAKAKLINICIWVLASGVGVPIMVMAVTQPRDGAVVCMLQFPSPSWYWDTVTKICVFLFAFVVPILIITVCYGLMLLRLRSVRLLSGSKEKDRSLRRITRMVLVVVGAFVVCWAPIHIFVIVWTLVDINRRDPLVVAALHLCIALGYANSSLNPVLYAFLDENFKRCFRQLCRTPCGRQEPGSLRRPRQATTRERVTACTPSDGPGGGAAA
Source text: Bioorg. Med. Chem., 11: 675-678 (2003). The isolated tissues were suspended in organ baths containing balanced salt solutions in a physiological buffer, pH 7.5. […]

μ-opioid receptor [4] = molecular target: μ-opioid receptor (Cavia porcellus, UniProt P97266); test: guinea pig ileum (GPI) bioassay; assay type: cell-based; details: Table 4
Chain of μ-opioid receptor (Cavia porcellus, UniProt P97266) (P97266 whole entry, looked up): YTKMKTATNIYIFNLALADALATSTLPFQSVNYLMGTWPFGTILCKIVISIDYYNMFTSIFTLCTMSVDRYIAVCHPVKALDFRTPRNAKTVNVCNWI
Protocol: The myenteric plexus longitudinal muscle preparations (2-3 cm segments) from the small intestine of male Hartley strain guinea pigs (GP1) measured μ-opioid receptor agonism and a single mouse vas deferens (MVD) was used to determine δ-opioid receptor agonism as described in Sasaki et al. Bioorg. […] The isolated tissues were suspended in organ baths containing balanced salt solutions in a physiological buffer, pH 7.5. Agonists were tested for the inhibition of electrically evoked contraction and expressed as IC50 (nM) obtained from the dose-response curves.

[5] = test system: morphine-induced analgesia; test: inhibition of morphine-induced analgesia after intracerebroventricular administration; assay type: in vivo; details: mice
δ-opioid receptor [6] = molecular target: T1, δ-opioid receptor; details: Table 3; reference rows marked e, f, g (no SE, no n); cited from earlier work
μ-opioid receptor [7] = molecular target: T2, μ-opioid receptor; details: Table 3, reference rows marked e, f, cited from earlier work

| Compound | Ki (δ-opioid receptor [1]) [nM] | Ki(δ)/Ki(μ) (μ-opioid receptor [2]; selectivity ratio) | Ki (μ-opioid receptor [2]; versus [3H]DAMGO, rat brain synaptosomes, read-out: Ki(μ)) [nM] | IC50 (δ-opioid receptor [3]; agonism, read-out: MVD) [µM] | MVD pA2 (δ-opioid receptor [3]; δ antagonism) | IC50 (μ-opioid receptor [4]; agonism, read-out: GPI) [µM] | pA2(μ)/pA2(δ) (μ-opioid receptor [4]; selectivity of antagonism) | GPI pA2 (μ-opioid receptor [4]; μ antagonism) | inhibition of morphine-induced analgesia [5] | Ki (δ-opioid receptor [6]) [nM] | Ki (μ-opioid receptor [7]; g (no SE, no n)) [nM] | Ki(δ)/Ki(μ) (μ-opioid receptor [7]; g) |
| --- | --- | --- | --- | --- | --- | --- | --- | --- | --- | --- | --- | --- |
| C=CCNC(Cc1c(C)cc(O)cc1C)C(=O)NCCCCCCNC(=O)C(Cc1c(C)cc(O)cc1C)NCC=C (stereo not drawn) [Compound 33, Bis-[(N-allyl)Dmt-NH]hexyl] | 77.8 ± 14 | 11 | 6.94 ± 1.4 | > 10 | 6.83 | > 10 | 2.5 | 7.23 | inhibit morphine-induced analgesia | – | – | – |
| H-Dmt-Pro-Phe-Phe-NH2 [[Dmt^1]EM-2] | – | – | – | – | – | – | – | – | – | 28.2 | 0.15 | 188 |
